Several values for one entry are separate records, joined by “and”; a condition that tells them apart may be missing. Identical values can stand only once.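 Compound exposure: 48 hours, 5 concentrations, 96-well plates. GI50 is the concentration that inhibits growth by half. The concentration for full growth arrest is given as TGI.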

Among the test systems are ACHN renal; BT-549 breast; HCT-116 colon; M14 melanoma; OVCAR-5 ovarian; RPMI-8226 leukemia; SF-539 CNS; SK-MEL-28 melanoma; SW-620 colon; TK-10 renal.
Holding throughout (experiment): growth of human tumour cells (NCI), 48 h

Turning to `CC[C@H](C)[C@H](NC(=O)NC(C)(C)C)C(=O)N(C)[C@H](C[C@@H](OC(C)=O)c1nc(C(=O)N[C@@H](Cc2ccccc2)C[C@H](C)C(=O)OC)cs1)C(C)C`, the GI50 is 1.15 µM in the experiment with ACHN renal; 0.241 µM in the experiment on BT-549 breast; 0.417 µM in the experiment on HCT-116 colon; 0.476 µM with M14 melanoma; 2.4 µM in the experiment on OVCAR-5 ovarian; 0.263 µM in the experiment with RPMI-8226 leukemia. For the same compound, the GI50 in the experiment with SF-539 CNS is 0.628 µM; in the experiment with SK-MEL-28 melanoma, 2.97 µM; in the experiment with SW-620 colon it was 0.646 µM; in the experiment with TK-10 renal, 0.963 µM. The TGI with ACHN renal is > 25 µM; in the experiment on BT-549 breast, 1.52 µM; with HCT-116 colon, > 25 µM; in the experiment with M14 melanoma, 2.08 µM; in the experiment with OVCAR-5 ovarian, > 25 µM; in the experiment on RPMI-8226 leukemia, 4.2 µM. For the same compound, the TGI is 1.82 µM in the experiment with SF-539 CNS, > 25 µM in the experiment with SK-MEL-28 melanoma, > 25 µM with SW-620 colon and > 25 µM in the experiment on TK-10 renal.

Turning to `O=C(NO)c1ccc(Cn2c(=O)n(-c3ccccc3)c(=O)c3ccccc32)cc1`, the GI50 with ACHN renal is 1.67 µM; in the experiment with BT-549 breast, 1.55 µM; with HCT-116 colon, 0.324 µM; in the experiment on M14 melanoma, 0.539 µM; in the experiment with OVCAR-5 ovarian, 1.08 µM; with RPMI-8226 leukemia, 0.689 µM. Also, the GI50 in the experiment with SF-539 CNS is 0.693 µM; in the experiment with SK-MEL-28 melanoma it was 0.519 µM; in the experiment on SW-620 colon, 0.667 µM; in the experiment with TK-10 renal it was 1.02 µM. Further, the TGI came to 6.37 µM in the experiment on ACHN renal; 3.92 µM in the experiment with BT-549 breast; 0.898 µM in the experiment with HCT-116 colon; 2.09 µM in the experiment on M14 melanoma; 5.28 µM with OVCAR-5 ovarian; 93.5 µM in the experiment with RPMI-8226 leukemia. Further, the TGI in the experiment on SF-539 CNS came to 2.86 µM; in the experiment on SK-MEL-28 melanoma it was 2.93 µM; in the experiment on SW-620 colon it was 3.03 µM; in the experiment on TK-10 renal, 8.08 µM.

As to `Cc1ccc2nc3c(n2c1)C(=O)C(=O)c1ccccc1-3`, the GI50 in the experiment with ACHN renal was 0.269 µM; in the experiment on BT-549 breast, 0.168 µM; in the experiment on HCT-116 colon, 0.188 µM; with M14 melanoma, 0.183 µM; in the experiment with OVCAR-5 ovarian, 0.202 µM; in the experiment with RPMI-8226 leukemia it was 0.18 µM. In addition, the GI50 with SF-539 CNS was 0.164 µM; in the experiment on SK-MEL-28 melanoma it was 0.189 µM; with SW-620 colon, 0.198 µM; in the experiment on TK-10 renal it was 1.28 µM. The TGI was 0.88 µM in the experiment on ACHN renal; 0.307 µM in the experiment on BT-549 breast; 1.09 µM with HCT-116 colon; 0.34 µM in the experiment on M14 melanoma; 0.391 µM in the experiment with OVCAR-5 ovarian; 0.717 µM in the experiment with RPMI-8226 leukemia. The TGI in the experiment on SF-539 CNS was found to be 0.326 µM; in the experiment on SK-MEL-28 melanoma it was 0.343 µM; with SW-620 colon, 0.411 µM; in the experiment with TK-10 renal, 2.9 µM.

For `COc1ccc(C2=N[C@@H](c3ccc(Cl)cc3)[C@@H](c3ccc(Cl)cc3)N2C(=O)N2CCNC(=O)C2)c(OC(C)C)c1`, the GI50 is 14.6 µM and 3.61 µM and 3.8 µM in the experiment with ACHN renal; 12.6 µM and 14.9 µM and 15.4 µM in the experiment on BT-549 breast; 12.4 µM and 3.82 µM and 3.53 µM in the experiment with HCT-116 colon; 14.1 µM and 14.9 µM and 16.3 µM in the experiment on M14 melanoma; 17.1 µM and 16.3 µM and 17.3 µM in the experiment on OVCAR-5 ovarian; 14.6 µM and 16.6 µM and 16.4 µM in the experiment with RPMI-8226 leukemia. The GI50 in the experiment on SF-539 CNS is 16.5 µM and 17.2 µM and 17.8 µM; in the experiment with SK-MEL-28 melanoma it was 15.8 µM and 15.3 µM and 16.5 µM; in the experiment with SW-620 colon it was 17.1 µM and 18.2 µM and 16.7 µM; in the experiment on TK-10 renal, 16.1 µM and 14.6 µM and 14.8 µM. The TGI is 29.4 µM and 15.1 µM and 16.1 µM in the experiment on ACHN renal; 25.7 µM and 29.2 µM and 29.9 µM in the experiment with BT-549 breast; 25.4 µM and 18.4 µM and 18.7 µM with HCT-116 colon; 28.4 µM and 32 µM and 33.2 µM with M14 melanoma; 34 µM and 32.2 µM and 34.1 µM in the experiment on OVCAR-5 ovarian; > 63.7 µM and 62.7 µM and 56.8 µM in the experiment on RPMI-8226 leukemia. Moreover, the TGI in the experiment on SF-539 CNS is 32 µM and 32.9 µM and 35.1 µM; in the experiment with SK-MEL-28 melanoma, 30.8 µM and 29.6 µM and 32.2 µM; with SW-620 colon, 33.6 µM and 37.4 µM and 34 µM; in the experiment with TK-10 renal, 29.9 µM and 27.7 µM and 28 µM.

With `OCCn1cc(-c2cnc3nnn(Cc4ccc5ncccc5c4)c3n2)cn1`, the GI50 with ACHN renal, in the experiment on BT-549 breast, in the experiment on HCT-116 colon, in the experiment on M14 melanoma, with OVCAR-5 ovarian and with RPMI-8226 leukemia was > 100 µM throughout. Further, the GI50 in the experiment on SF-539 CNS, in the experiment with SK-MEL-28 melanoma, with SW-620 colon and in the experiment on TK-10 renal was > 100 µM in each case. Besides, the TGI in the experiment with ACHN renal, in the experiment with BT-549 breast, in the experiment with HCT-116 colon, with M14 melanoma, in the experiment with OVCAR-5 ovarian and with RPMI-8226 leukemia was > 100 µM in each case. In addition, the TGI with SF-539 CNS, in the experiment on SK-MEL-28 melanoma, with SW-620 colon and in the experiment on TK-10 renal was > 100 µM each time.

With `CCOC(=O)Cn1c(-c2nonc2NC(=O)c2ccccc2F)nc2ccccc21`, the GI50 in the experiment with ACHN renal is 5.05 µM; in the experiment with BT-549 breast, 5.91 µM; in the experiment with HCT-116 colon, 0.434 µM; in the experiment with M14 melanoma, 74.1 µM; in the experiment on OVCAR-5 ovarian it was 26.3 µM; in the experiment on RPMI-8226 leukemia, 7.5 µM. For the same compound, the GI50 is 1.67 µM in the experiment on SF-539 CNS, 17.9 µM in the experiment on SK-MEL-28 melanoma, 1.4 µM in the experiment on SW-620 colon and 19.2 µM with TK-10 renal. The TGI with ACHN renal was > 100 µM; with BT-549 breast it was > 93.7 µM; in the experiment with HCT-116 colon, > 100 µM; with M14 melanoma, > 100 µM; in the experiment on OVCAR-5 ovarian it was > 100 µM; with RPMI-8226 leukemia it was > 100 µM. Besides, the TGI in the experiment with SF-539 CNS is > 100 µM; with SK-MEL-28 melanoma, > 100 µM; in the experiment on SW-620 colon, > 100 µM; in the experiment on TK-10 renal, > 82.7 µM.

Consider `O=C(Nc1ccc(Nc2ccncc2)cc1)c1ccc(Nc2ccnc3ccc([N+](=O)[O-])cc23)cc1[N+](=O)[O-]`, for which the GI50 is 15.5 µM with ACHN renal; > 78.5 µM in the experiment on BT-549 breast; 23.7 µM in the experiment with HCT-116 colon; 21.9 µM in the experiment with M14 melanoma; 38 µM in the experiment on OVCAR-5 ovarian; 12.6 µM in the experiment with RPMI-8226 leukemia. The GI50 was 2.98 µM with SF-539 CNS, 5.26 µM in the experiment on SK-MEL-28 melanoma, 26.8 µM in the experiment with SW-620 colon and 27.9 µM with TK-10 renal. For the same compound, the TGI was 37.2 µM in the experiment with ACHN renal; > 100 µM in the experiment on BT-549 breast; > 100 µM in the experiment on HCT-116 colon; > 100 µM in the experiment on M14 melanoma; > 88.4 µM in the experiment with OVCAR-5 ovarian; 55.3 µM in the experiment on RPMI-8226 leukemia. Besides, the TGI in the experiment on SF-539 CNS was 11.2 µM; with SK-MEL-28 melanoma, > 46.1 µM; in the experiment on SW-620 colon, > 55.5 µM; with TK-10 renal, > 80.2 µM.

The record behind these values is PubChem BioAssay (NCI).
